What all share (type): in vivo
In test [1] the test system is Amaranthus retroflexus (AMARE). The experiment in a line: Herbicidal pre-emergence action, section A (Table A11). The settings on record: for pest or weed control at 320 g/ha: application rate 320 g/ha. From the text: (§1) Seeds of mono- and dicotyledonous weed plants were sown in plastic pots (double sowings with one species of mono- and one species of dicotyledonous weed plants per pot), in sandy loam, and covered with soil. The compounds according to the invention, formulated in the form of wettable powders (WP) or as emulsifiable concentrates (EC), were applied to the surface of the covering soil as aqueous suspension or emulsion, with the addition of 0.5% of an additive, at an application rate of 600 l of water per hectare (converted). Following treatment, the pots were placed in a greenhouse and kept under optimum growth conditions for the test plants. The visual grading of the damage to the test plants was carried out after ca. 3 weeks in comparison to untreated controls (herbicidal effect in percent (%): 100% effect=plants have died off, 0% effect=as control plants).

Another test relates to Poa annua (POAAN). In words: Herbicidal pre-emergence action, section A (Table A7). Conditions: visual grading after ca. 3 weeks vs untreated controls.
Description: as §1

Test [2] has as its system Stellaria media (STEME). The experiment in a line: Herbicidal pre-emergence action, section A (Table A9). The settings on record: Stellaria media, 504 h, application rate 1280 g/ha, read-out: pre-emergence activity against STEME in %.
Description: as §1

Test [3] deals with Kochia scoparia (KCHSC). The experiment in a line: Herbicidal post-emergence action, section B (Table B4). Conditions: visual rating about 3 weeks after treatment vs untreated controls. As to the method:
(§2) Seeds of mono- and dicotyledonous weed plants were placed in plastic pots in sandy loam soil (doubly sown with in each case one species of mono- or dicotyledonous weed plants per pot), covered with soil and cultivated in a greenhouse under controlled growth conditions. 2 to 3 weeks after sowing, the test plants were treated at the one-leaf stage. The compounds of the invention, formulated in the form of wettable powders (WP) or as emulsion concentrates (EC), were applied onto the green parts of the plants as aqueous suspension or emulsion with addition of 0.5% additive at a water application rate of 600 liters per hectare (converted). After the test plants had been kept in the greenhouse under optimum growth conditions for about 3 weeks, the activity of the preparations was rated visually in comparison to untreated controls. For example, 100% activity=the plants have died, 0% activity=like control plants.

Another test concerns Lolium rigidum (LOLRI). In words: Herbicidal pre-emergence action, section A (Table A5). The settings on record: Lolium rigidum, pre-emergence, 504 h; application rate 1280 g/ha; visual grading after ca. 3 weeks vs untreated controls; read-out: pre-emergence activity against LOLRI in %.
Description: as §1

Test [4] relates to Kochia scoparia (KCHSC). In words: Herbicidal pre-emergence action, section A (Table A4). Conditions: Bassia scoparia, pre-emergence, 504 h, visual grading after ca. 3 weeks vs untreated controls, read-out: pre-emergence activity against KCHSC in %; for pest or weed control at 320 g/ha: application rate 320 g/ha.
Description: as §1

Test [5] relates to Matricaria inodora (MATIN). The experiment in a line: Herbicidal pre-emergence action, section A (Table A6). The settings on record: Tripleurospermum inodorum, pre-emergence, 504 h; application rate 1280 g/ha; visual grading after ca. 3 weeks vs untreated controls; read-out: pre-emergence activity against MATIN in %.
Description: as §1

Test [6] has as its system Stellaria media (STEME). The experiment in a line: Herbicidal post-emergence action, section B (Table B9). The settings on record: application rate 1280 g/ha, visual rating about 3 weeks after treatment vs untreated controls. How it is done:
as §2

The test system of a further test is Setaria viridis (SETVI). The experiment in a line: Herbicidal pre-emergence action, section A (Table A8). The settings on record: for pest or weed control at 320 g/ha: Setaria viridis, 504 h, application rate 320 g/ha, read-out: pre-emergence activity against SETVI in %.
Description: as §1

In test [7] the test system is Digitaria sanguinalis (DIGSA). In words: Herbicidal pre-emergence action, section A (Table A12).
Description: as §1

The test system of test [8] is Amaranthus retroflexus (AMARE). The experiment in a line: Herbicidal post-emergence action, section B (Table B11). The settings on record: application rate 1280 g/ha, visual rating about 3 weeks after treatment vs untreated controls. As to the method:
as §2

The subject of test [9] is Echinochloa crus-galli (ECHCG). In words: Herbicidal pre-emergence action, section A (Table A3). The settings on record: application rate 1280 g/ha, visual grading after ca. 3 weeks vs untreated controls; for pest or weed control at 1280 g/ha: Echinochloa crus-galli, pre-emergence, 504 h, read-out: pre-emergence activity against ECHCG in %.
Description: as §1

The next test concerns Veronica persica (VERPE). In words: Herbicidal pre-emergence action, section A (Table A10). The settings on record: Veronica persica, 504 h, application rate 1280 g/ha, read-out: pre-emergence activity against VERPE in %.
Description: as §1

[10] abbreviates: Amaranthus retroflexus, 504 h, read-out: pre-emergence activity against AMARE in %.
The mark [11] stands for this setting: Digitaria sanguinalis, 504 h, application rate 1280 g/ha, read-out: pre-emergence activity against DIGSA in %.

Regarding `Cc1cc2c(nc1-c1cccc(F)c1F)N(C(=O)C(C)C)C[S+]2[O-]` (stereo not drawn) [Example I-028], the pest or weed control at 320 g/ha in test [1] (setting [10]) stood at 90%; in the test with Kochia scoparia (KCHSC) [3] (Bassia scoparia, post-emergence, 504 h, application rate 320 g/ha, read-out: post-emergence activity against KCHSC in %), 90%; in the test on Kochia scoparia (KCHSC) [4], 90%; with Setaria viridis (SETVI), 100%. The pest or weed control at 1280 g/ha with Poa annua (POAAN) (Poa annua, pre-emergence, 504 h, application rate 1280 g/ha, read-out: pre-emergence activity against POAAN in %) stood at 100%; in the test with Stellaria media (STEME) [2], 90%; in the test with Lolium rigidum (LOLRI), 100%; in [5], 90%; with Stellaria media (STEME) [6] (Stellaria media, post-emergence, 504 h, read-out: post-emergence activity against STEME in %) it was 90%; in [7] (setting [11]), 100%.
For the compound `O=C(c1ccccc1C(F)(F)F)N1CSc2cc(Br)c(-c3ccc(F)cc3F)nc21` [Example I-043], in the test on Poa annua (POAAN) (application rate 1280 g/ha), the “pre-emergence activity against POAAN in %” value is 90%. In addition, in test [8], the “post-emergence activity against AMARE in %” value was 90%.
With `CCC(=O)N1C[S+]([O-])c2cc(C)c(-c3ccc(F)cc3F)nc21` (stereo not drawn) [Example I-053], the pest or weed control at 1280 g/ha stood at 100% in test [9]; 90% with Veronica persica (VERPE); 90% in the test on Stellaria media (STEME) [2]; 100% in the test on Lolium rigidum (LOLRI); 90% in [5]; 90% in [8] (Amaranthus retroflexus, post-emergence, 504 h, read-out: post-emergence activity against AMARE in %). In addition, the pest or weed control at 320 g/ha in test [1] (setting [10]) turned out to be 90%; in the test on Poa annua (POAAN) (Poa annua, pre-emergence, 504 h, application rate 320 g/ha, read-out: pre-emergence activity against POAAN in %), 100%; in the test with Kochia scoparia (KCHSC) [4], 90%; in the test with Setaria viridis (SETVI), 100%; in test [7] (Digitaria sanguinalis, 504 h, application rate 320 g/ha, read-out: pre-emergence activity against DIGSA in %) it was 100%.
For `CCc1ccccc1-c1nc2c(cc1Br)SCN2B(N)N` [Example I-080], the “post-emergence activity against AMARE in %” value in test [8] was 90%. Further, the “pre-emergence activity against DIGSA in %” value in test [7] (application rate 1280 g/ha) was found to be 100%.
With `COc1ccccc1-c1nc2c(cc1C)[S+]([O-])CN2S(C)(=O)=O` (stereo not drawn) [Example I-101], the pest or weed control at 1280 g/ha in test [9] turned out to be 90%; in test [1] (Amaranthus retroflexus, 504 h, application rate 1280 g/ha, read-out: pre-emergence activity against AMARE in %), 90%; in the test with Kochia scoparia (KCHSC) [3] (Bassia scoparia, post-emergence, 504 h, application rate 1280 g/ha, read-out: post-emergence activity against KCHSC in %), 90%; in the test on Lolium rigidum (LOLRI) it was 100%; with Kochia scoparia (KCHSC) [4] (application rate 1280 g/ha), 90%; in test [7] (setting [11]), 90%. Further, the pest or weed control at 320 g/ha in the test on Setaria viridis (SETVI) turned out to be 100%.
In the case of `Fc1c(Cl)cccc1-c1nc2c(cc1Br)SCN2` [Example I-103], the “pre-emergence activity against ECHCG in %” value in [9] was found to be 90%. Besides, the “pre-emergence activity against AMARE in %” value in [1] (application rate 1280 g/ha) amounted to 90%. Moreover, the “pre-emergence activity against POAAN in %” value with Poa annua (POAAN) (application rate 1280 g/ha) is 100%. The “post-emergence activity against KCHSC in %” value in the test on Kochia scoparia (KCHSC) [3] (application rate 1280 g/ha) is listed as 90%. For the same compound, the “post-emergence activity against STEME in %” value in the test with Stellaria media (STEME) [6] is reported as 90%. The “pre-emergence activity against SETVI in %” value in the test on Setaria viridis (SETVI) (application rate 1280 g/ha) amounted to 100%.
Regarding `Cc1cccc(-c2nc3c(cc2Br)SCN3B(N)N)c1C` [Example I-105], the “post-emergence activity against AMARE in %” value in test [8] was 90%.
